# Patent US12351580B2, “NLRP3 modulators” (Innate Tumor Immunity, Inc., priority 2017, dated 2025)
# Target: T1, hNLRP3 (Homo sapiens, UniProt Q96P20)
# T1 construct: THP-1 cells were purchased from the American Type Culture Collection; host or cells: THP-1 cells, PMA-differentiated
# Test: Measurement of IL-1β production in PMA-differentiated THP-1 cells (hNLRP3 agonist; ELISA, alternative and hTRF procedures)
# Assay type: cell-based
# How it was run: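 Supernatant IL-1β was quantified by ELISA in two procedures and by hTRF (kit antibodies at 1:40) in a third. THP-1 cells were first differentiated with PMA ([…] for 24 h; 20 μg/ml overnight; 50 ng/ml overnight), then incubated in 2% FBS RPMI with compounds for 4 h, 2 h and 2 h, respectively, at 1% DMSO or a 10 μM top concentration.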
# T1 sequence (Q96P20 whole entry): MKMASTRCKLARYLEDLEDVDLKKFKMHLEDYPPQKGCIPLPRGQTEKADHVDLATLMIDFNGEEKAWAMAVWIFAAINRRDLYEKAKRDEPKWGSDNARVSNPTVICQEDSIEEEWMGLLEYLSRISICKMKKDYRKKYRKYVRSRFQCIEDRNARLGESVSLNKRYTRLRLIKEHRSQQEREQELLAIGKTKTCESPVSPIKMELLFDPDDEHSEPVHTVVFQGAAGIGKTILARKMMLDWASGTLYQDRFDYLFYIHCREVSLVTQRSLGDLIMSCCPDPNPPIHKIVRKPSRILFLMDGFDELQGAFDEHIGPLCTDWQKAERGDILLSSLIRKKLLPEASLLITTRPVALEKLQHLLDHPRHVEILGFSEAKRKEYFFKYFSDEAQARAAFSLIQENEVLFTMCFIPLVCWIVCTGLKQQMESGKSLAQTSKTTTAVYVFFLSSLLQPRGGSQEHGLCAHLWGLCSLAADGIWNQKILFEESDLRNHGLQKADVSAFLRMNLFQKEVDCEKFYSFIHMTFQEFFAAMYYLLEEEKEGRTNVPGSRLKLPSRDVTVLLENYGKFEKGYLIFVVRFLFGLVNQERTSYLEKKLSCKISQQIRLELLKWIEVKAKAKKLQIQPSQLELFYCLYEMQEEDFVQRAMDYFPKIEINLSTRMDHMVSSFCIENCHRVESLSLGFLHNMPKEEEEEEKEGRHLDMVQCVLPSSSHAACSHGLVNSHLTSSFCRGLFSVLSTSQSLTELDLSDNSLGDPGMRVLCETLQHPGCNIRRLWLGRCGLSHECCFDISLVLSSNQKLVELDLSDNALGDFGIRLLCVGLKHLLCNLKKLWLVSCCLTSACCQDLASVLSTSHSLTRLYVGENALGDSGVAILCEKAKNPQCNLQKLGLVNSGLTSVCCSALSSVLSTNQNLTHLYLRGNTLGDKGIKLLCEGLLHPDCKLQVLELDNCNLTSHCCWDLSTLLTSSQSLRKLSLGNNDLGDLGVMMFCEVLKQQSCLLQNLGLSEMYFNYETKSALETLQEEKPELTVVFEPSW
row,EC50 [nM],Structure (SMILES)
1,1790,CCNCc1nc2c(N)nc3cc(-c4ccsc4)ccc3c2[nH]1 [Compound 400]
2,1230,CNCc1nc2c(N)nc3cc(-c4cc[nH]n4)ccc3c2[nH]1 [Compound 401]
3,1310,CNCc1nc2c(N)nc3cc(-n4cccn4)ccc3c2[nH]1 [Compound 402]
4,3660,COc1ccc(Cn2c(CN3CCN(C)C3=O)nc3c(N)nc4cc(-c5cc[nH]n5)ccc4c32)cc1 [Compound 403]
5,2500,COc1ccc(Cn2c(CN3C(=O)OCC3COCc3ccccc3)nc3c(N)nc4cc(-c5cc[nH]n5)ccc4c32)cc1 (stereo not drawn) [Compound 404]
6,2190,COC(=O)N(C)Cc1nc2c(N)nc3cc(-c4cc[nH]n4)ccc3c2[nH]1 [Compound 405]
7,1370,CCN(Cc1nc2c(N)nc3cc(-c4cc[nH]n4)ccc3c2[nH]1)C(=O)OC [Compound 406]
8,6550,Nc1nc2cc(-c3cc[nH]n3)ccc2c2[nH]c(CN3C[C@@H](c4ccccc4)CC3=O)nc12 [Compound 407]
9,5230,Nc1nc2cc(-c3cc[nH]n3)ccc2c2[nH]c(CN3C[C@H](c4ccccc4)CC3=O)nc12 [Compound 408]
10,2360,COc1ccc(Cn2c(CN3C(=O)OCC3c3ccccc3)nc3c(N)nc4cc(-c5cc[nH]n5)ccc4c32)cc1 (stereo not drawn) [Compound 409]
11,3830,COc1ccc(Cn2c(Cn3cnccc3=O)nc3c(N)nc4cc(-c5cc[nH]n5)ccc4c32)cc1 [Compound 414]
12,7400,CCN(Cc1nc2c(N)nc3cc(-c4cc[nH]n4)ccc3c2[nH]1)C(=O)C1COC1 [Compound 417]
13,910,"CCN(Cc1nc2c(N)nc3cc(-c4ccsc4)ccc3c2[nH]1)C(C)=O [Compound 419, N-((4-Amino-7-(thiophen-3-yl)-1H-imidazo[4,5-c]quinolin-2-yl)methyl)-N-ethylacetamide]"
14,190,CCN(Cc1nc2c(N)nc3cc(-c4cc[nH]n4)ccc3c2n1C)C(=O)OC(C)(C)C [Compound 420]
15,280,CCN(Cc1nc2c(N)nc3cc(-c4ccc(C)cc4)ccc3c2[nH]1)C(C)=O [Compound 422]
16,620,Nc1nc2cc(-n3cccn3)ccc2c2[nH]c(CN3CCCCC3=O)nc12 [Compound 423]
17,5000,CCN(Cc1nc2c(N)nc3cc(-c4cncc(F)c4)ccc3c2[nH]1)C(C)=O [Compound 427]
18,7450,CCN(Cc1nc2c(N)nc3cc(Br)ccc3c2n1CC(C)C)C(C)=O [Compound 430]

row,EC50 [nM],Structure (SMILES)
1,8670,CCN(Cc1nc2c(N)nc3cc(Br)ccc3c2n1CCCOC)C(C)=O [Compound 431]
2,15500,N#Cc1ccc(-c2ccc3c(c2)nc(N)c2nc(CN4CCCC4=O)[nH]c23)cc1 [Compound 434]
3,1300,"CCOC(=O)N(CC)Cc1nc2c(N)nc3cc(-c4cc[nH]n4)ccc3c2[nH]1 [Compound 436, Ethyl N-{[4-amino-7-(1H-pyrazol-3-yl)-1H-imidazo[4,5-c]quinolin-2-yl]methyl}-N-ethylcarbamate]"
4,1100,"CCN(Cc1nc2c(N)nc3cc(-c4cc[nH]n4)ccc3c2[nH]1)C(=O)Cc1cccc(C)c1 [Compound 437, N-{[4-amino-7-(1H-pyrazol-3-yl)-1H-imidazo[4,5-c]quinolin-2-yl]methyl}-N-ethyl-2-(3-methylphenyl)acetamide]"
5,4200,"CCN(Cc1nc2c(N)nc3cc(-c4cc[nH]n4)ccc3c2[nH]1)C(=O)c1cccnc1 [Compound 438, N-{[4-amino-7-(1H-pyrazol-3-yl)-1H-imidazo[4,5-c]quinolin-2-yl]methyl}-N-ethylpyridine-3-carboxamide]"
6,5700,"CCN(Cc1nc2c(N)nc3cc(-c4cc[nH]n4)ccc3c2[nH]1)C(=O)c1ccccn1 [Compound 439, N-{[4-amino-7-(1H-pyrazol-3-yl)-1H-imidazo[4,5-c]quinolin-2-yl]methyl}-N-ethylpyridine-2-carboxamide]"
7,18400,"CCN(Cc1nc2c(N)nc3cc(-c4cc[nH]n4)ccc3c2[nH]1)C(=O)CC(C)(C)O [Compound 440, N-{[4-amino-7-(1H-pyrazol-3-yl)-1H-imidazo[4,5-c]quinolin-2-yl]methyl}-N-ethyl-3-hydroxy-3-methylbutanamide]"
8,690,"CCN(Cc1nc2c(N)nc3cc(-c4cc[nH]n4)ccc3c2[nH]1)C(=O)c1ccc(OC)cc1 [Compound 441, N-{[4-amino-7-(1H-pyrazol-3-yl)-1H-imidazo[4,5-c]quinolin-2-yl]methyl}-N-ethyl-4-methoxybenzamide]"
9,2600,"CCN(Cc1nc2c(N)nc3cc(-c4cc[nH]n4)ccc3c2[nH]1)C(=O)c1cnccn1 [Compound 442, N-{[4-amino-7-(1H-pyrazol-3-yl)-1H-imidazo[4,5-c]quinolin-2-yl]methyl}-N-ethylpyrazine-2-carboxamide]"
10,860,"CCN(Cc1nc2c(N)nc3cc(-c4cc[nH]n4)ccc3c2[nH]1)C(=O)Cc1ccccc1 [Compound 443, N-{[4-amino-7-(1H-pyrazol-3-yl)-1H-imidazo[4,5-c]quinolin-2-yl]methyl}-N-ethyl-2-phenylacetamide]"
11,930,"CCN(Cc1nc2c(N)nc3cc(-c4cc[nH]n4)ccc3c2[nH]1)C(=O)CCCc1ccccc1 [Compound 444, N-{[4-amino-7-(1H-pyrazol-3-yl)-1H-imidazo[4,5-c]quinolin-2-yl]methyl}-N-ethyl-4-phenylbutanamide]"
12,740,"CCN(Cc1nc2c(N)nc3cc(-c4cc[nH]n4)ccc3c2[nH]1)C(=O)CCC(C)C [Compound 445, N-{[4-amino-7-(1H-pyrazol-3-yl)-1H-imidazo[4,5-c]quinolin-2-yl]methyl}-N-ethyl-4-methylpentanamide]"
13,670,"CCN(Cc1nc2c(N)nc3cc(-c4cc[nH]n4)ccc3c2[nH]1)C(=O)c1cccn1C [Compound 446, N-{[4-amino-7-(1H-pyrazol-3-yl)-1H-imidazo[4,5-c]quinolin-2-yl]methyl}-N-ethyl-1-methyl-1H-pyrrole-2-carboxamide]"
14,1500,"CCN(Cc1nc2c(N)nc3cc(-c4cc[nH]n4)ccc3c2[nH]1)C(=O)CCc1ccccc1 [Compound 447, N-{[4-amino-7-(1H-pyrazol-3-yl)-1H-imidazo[4,5-c]quinolin-2-yl]methyl}-N-ethyl-3-phenylpropanamide]"
15,900,"CCN(Cc1nc2c(N)nc3cc(-c4cc[nH]n4)ccc3c2[nH]1)C(=O)c1ccccc1Cl [Compound 449, N-{[4-amino-7-(1H-pyrazol-3-yl)-1H-imidazo[4,5-c]quinolin-2-yl]methyl}-2-chloro-N-ethylbenzamide]"
16,4500,"CCN(Cc1nc2c(N)nc3cc(-c4cc[nH]n4)ccc3c2[nH]1)C(=O)c1ccncc1 [Compound 450, N-{[4-amino-7-(1H-pyrazol-3-yl)-1H-imidazo[4,5-c]quinolin-2-yl]methyl}-N-ethylpyridine-4-carboxamide]"
17,1300,"CCN(Cc1nc2c(N)nc3cc(-c4cc[nH]n4)ccc3c2[nH]1)C(=O)c1cn(C)c2ccccc12 [Compound 451, N-{[4-amino-7-(1H-pyrazol-3-yl)-1H-imidazo[4,5-c]quinolin-2-yl]methyl}-N-ethyl-1-methyl-1H-indole-3-carboxamide]"
18,1200,"CCN(Cc1nc2c(N)nc3cc(-c4cc[nH]n4)ccc3c2[nH]1)C(=O)c1ccc(Cl)cc1 [Compound 452, N-{[4-amino-7-(1H-pyrazol-3-yl)-1H-imidazo[4,5-c]quinolin-2-yl]methyl}-4-chloro-N-ethylbenzamide]"
